Columns and labels:
[1] = human; cohort 1 (T2, T4a, Ra)
[2] = in vivo; conditions: rat, in vivo
Method: (§1) Each rat was treated with two (2) IN administrations of the respective formulations in Groups A1-A5.
(§2) The analysis of clinical pathology was conducted by a qualified veterinary laboratory (Quality Veterinary Laboratory (QVL), Davis, California, USA).
(§3) Histopathological evaluation was conducted by a qualified pathology laboratory (Experimental Pathology Laboratories, Inc. (EPL), Sterling, Virginia, USA). […] EPL's histopathological findings were graded from 1 to 5, with 1 as minimal, and 5 as severe, depending upon severity.

[3] = system: rats; assay: in vivo; conditions: rats
Method: as §1, §2, §3

[4] = system: nasal mucosa of rats; assay: Local toxicity study of STCDC, histopathology of nasal mucosa (Example 5); assay type: in vivo; conditions: rat; after exposure to STCDC and epinephrine
Method: Example 5 is an animal study designed to investigate the possible histological effects of bile salts (STCDC) on nasal mucosa of rats when the bile salt is used as an absorption enhancer for IN delivery. […] These IN formulations were administered intranasally to the rats. The histopathology of the rat's nasal tissue was examined to evaluate nasal mucosa tolerance to these tested IN formulations.
In Table 5.1, Group Nos. 2-6 each had excipients of about 8.5 mg/mL sodium chloride, about 3.84 mg/mL citric acid, about 1.5 mg/mL sodium metabisulfite, about 2.3 mg/mL HCl (10% w/v), and a pH adjustor (NaOH) as needed to adjust the pH to 3.6. […]
In total, EPL assessed 48 types of microscopic findings in nasal turbinate cavity level I through IV, as detailed in Table 5.3. […]
In order to quantitatively analyze the data for histopathological findings, the three (3) quantities, (i) total observation point (TOP), denoted as TOP, (ii) Average TOP per item per rat, and (iii) average occurrence for Level i (AOL)-i (i=1-5) were analyzed.
where m1, m2, m3, m4, and m5 are number of findings with Level 1, 2, 3, 4, 5, respectively, from the 48 microscopic histopathological items (as detailed in Table 5.3) assessed by EPL, n is the number of rats examined.

[5] = aqueous epinephrine by the IN route, no enhancer; cited from earlier work

C[C@H](CCC(=O)NCCS(=O)(=O)[O-])[C@H]1CC[C@H]2[C@@H]3[C@H](O)C[C@@H]4C[C@H](O)CC[C@]4(C)[C@H]3C[C@H](O)[C@]12C.[Na+] [STC, sodium taurocholate]
baseline level of plasma STC [1]: approximately 20 pg/mL
NOAEL [2]: ≥ 2.5 mg/kg
NOAEL for bile salt (STC) at an IN delivery, relative dose ([3]; 15 mg/mL x 0.025 mL x 2, body weight 0.298 kg): 2.5 mg/kg
NOAEL for the bile salt (STC), concentration ([3]; IN administration, highest studied concentration): exceeding 15 mg/mL

C[C@H](CCC(=O)NCCS(=O)(=O)[O-])[C@H]1CC[C@H]2C3[C@H](O)C[C@@H]4C[C@H](O)CC[C@]4(C)[C@H]3CC[C@]12C.[Na+] (stereo partly drawn) [STCDC, sodium taurochenodeoxycholate]
course of observed nasal toxicity items over time (average TOP, FIG. 6D) [4]: nearly normal at two weeks post-dose

CNCC(O)c1ccc(O)c(O)c1 (single isomer, unassigned; (-)) [epinephrine, (-)-3,4-Dihy droxy-α-[(methyl-amino)methyl]benzyl alcohol]
bioavailability (BA) based on AUC in plasma concentration, IN relative to same dose by IM route [5]: approximately 5%
